“And” between values parts separate entries of the source, which are not always exact repeats. Identical values can stand only once.
Experiments:
serum uric acid [1] = assay: Serum uric acid after a single dose (tablet or suspension) in healthy human subjects (Example 33); assay type: in vivo; details: individual subjects
Procedure: Thirty six healthy human subjects are administered either […] or a suspension containing the noted amount of the compound of Example 3 after fasting for at least 8 hours. subjects are administered 200 mg of compound; twelve subjects are administered 400 mg of compound; and twelve subjects are administered 600 mg of compound. Blood was collected before subjects are given the compound (Day −1) and the day following administration (Day 2). Serum uric levels may be measured using standard automated procedures on a uricase peroxidase method. Serum uric acid levels are […] in mg/dL.

serum uric acid [2] = assay: Serum uric acid during 28-day once-daily oral dosing, placebo-controlled study in 48 subjects (Example 34); assay type: in vivo, human
Procedure: In another study, 48 subjects were divided into four groups, A, B, C and D, and administered the noted amount of the compound of Example 3. Each group was composed of 12 subjects of whom 9 received the compound and 3 received placebo. The non-placebo members of group A received 50 mg of compound, administered orally once a day for 28 days as a single 50 mg tablet. The non-placebo members of group B received 200 mg of compound administered orally once a day for 28 days as a single 200 mg tablet. The non-placebo members of group C received 500 mg of compound administered orally once a day for 28 days as two 50 mg tablets and two 200 mg tablets. The non-placebo members of group D received 800 mg of compound administered orally once a day for 28 days as four 200 mg tablets. The 3 placebo members of each group, received an amount of placebo, as a tablet, equivalent to the amount of test compound—50 mg placebo for group A, 200 mg placebo for group B, 500 mg placebo for group C and 800 mg placebo for group D. Each subject received a single dose of either compound or placebo for 28 days. The subjects were confined at the clinical site beginning the day before dose administration until 72 hours after the final dose administration on Day 28 and returned for an outpatient visit on Day 35.
Uric acid levels were measured prior to beginning the study (screening), on the day immediately prior to commencement of the study (day-1), and then as noted in the table. Hours indicates the time since the last dose was administered. For example, Day 7, 0 hour indicates the time the serum uric acid level at the time the dose was administered and Day 7, 2 hour indicates the uric acid level two hours after the adminstration that day. Further, the Day 30, 60 hour level is the serum uric acid level measured 60 hours (on Day 30) after the last dose was administered on Day 28. The uric acid levels are presented in mg/dL as a mean of all subjects in each group.

O=C(O)Cn1cc(Cc2nc3c(F)c(F)cc(F)c3s2)c2ccccc21 [Example 3, 3-(4,5,7-Trifluorobenzothiazol-2-yl)methyl-indole-N-acetic Acid]
% Reduction (Suspension) (serum uric acid [1]; 200 mg suspension, Day 2 vs Day-1): 36% (3×) and 27% and 25% and −51% and 23% (2×) and 35% and 0% and 20% and 11%
Uric Acid Day-1 Suspension (serum uric acid [1]; 200 mg suspension, before administration (baseline)): 5.0 mg/dL (2×) and 6.0 mg/dL and 5.3 mg/dL (2×) and 4.3 mg/dL and 5.2 mg/dL and 5.5 mg/dL and 4.7 mg/dL and 3.3 mg/dL and 6.3 mg/dL and 4.5 mg/dL
Uric Acid Day 2 (Suspension) (serum uric acid [1]; 200 mg suspension, day following administration): 3.2 mg/dL and 4.4 mg/dL and 4.0 mg/dL (3×) and 6.5 mg/dL and 3.6 mg/dL (2×) and 5.3 mg/dL and 2.1 mg/dL and 5.6 mg/dL and 2.9 mg/dL
% reduction (Tablet) (serum uric acid [1]; 200 mg tablet, Day 2 vs Day-1): 28% and 27% and 26% and −3% and 16% (2×) and 39% (2×) and −2% and 32% and 41% and −16%
Uric Acid Day-1 Tablet (serum uric acid [1]; 200 mg tablet, before administration (baseline)): 5.0 mg/dL and 6.3 mg/dL and 5.3 mg/dL and 5.8 mg/dL and 4.9 mg/dL (3×) and 6.2 mg/dL and 5.2 mg/dL and 5.7 mg/dL and 3.7 mg/dL and 5.1 mg/dL
Uric Acid Day 2 (Tablet) (serum uric acid [1]; 200 mg tablet, day following administration): 3.6 mg/dL and 4.6 mg/dL and 3.9 mg/dL (2×) and 6.0 mg/dL and 4.1 mg/dL (2×) and 3.8 mg/dL and 5.3 mg/dL and 2.2 mg/dL and 5.7 mg/dL and 3.1 mg/dL
% reduction (serum uric acid [1]; 400 mg, Day 2 vs Day-1): 47% and 5% and 67% and 9% and 49% and 43% and 2% and 36% and 45% and 51% and −13% and 24%
Uric acid Day-1 (serum uric acid [1]; 400 mg, before administration (baseline)): 4.5 mg/dL and 4.3 mg/dL and 6.6 mg/dL and 5.3 mg/dL and 3.7 mg/dL and 5.6 mg/dL and 6.0 mg/dL and 4.7 mg/dL (2×) and 7.7 mg/dL and 6.2 mg/dL and 4.6 mg/dL
Uric acid Day 2 (serum uric acid [1]; 400 mg, day following administration): 2.4 mg/dL and 4.1 mg/dL and 2.2 mg/dL and 4.8 mg/dL and 1.9 mg/dL and 3.2 mg/dL and 5.9 mg/dL and 3.0 mg/dL and 4.2 mg/dL and 2.3 mg/dL and 7.0 mg/dL and 3.5 mg/dL
% reduction (serum uric acid [1]; 600 mg, Day 2 vs Day-1): −6% and −44% and 45% and 55% and 42% and 2% and 57% and 47% and 37% and 58% and 50%
Uric acid Day-1 (serum uric acid [1]; 600 mg, before administration (baseline)): 4.7 mg/dL and 4.3 mg/dL and 5.5 mg/dL and 4.4 mg/dL (2×) and 5.9 mg/dL and 4.6 mg/dL and 3.5 mg/dL and 3.4 mg/dL and 3.0 mg/dL and 3.9 mg/dL
Uric acid Day 2 (serum uric acid [1]; 600 mg, day following administration): 5.0 mg/dL and 33 mg/dL and 6.2 mg/dL and 3.0 mg/dL and 2.0 mg/dL and 3.4 mg/dL and 4.5 mg/dL and 1.5 mg/dL and 1.8 mg/dL and 1.9 mg/dL and 1.7 mg/dL and 2.2 mg/dL
Uric Acid Level (mean of all subjects in each group) (serum uric acid [2]; group A 50 mg orally once a day, Day 1 8 Hour): 3.94 mg/dL
Uric Acid Level (mean of all subjects in each group) (serum uric acid [2]; group A 50 mg orally once a day, Day 1 10 Hour): 3.87 mg/dL
Uric Acid Level (mean of all subjects in each group) (serum uric acid [2]; group A 50 mg orally once a day, Day 1 12 Hour): 3.89 mg/dL
Uric Acid Level (mean of all subjects in each group) (serum uric acid [2]; group A 50 mg orally once a day, Day 1 16 Hour): 3.98 mg/dL
Uric Acid Level (mean of all subjects in each group) (serum uric acid [2]; group A 50 mg orally once a day, Day 1 24 Hour): 4.19 mg/dL
Uric Acid Level (mean of all subjects in each group) (serum uric acid [2]; group A 50 mg orally once a day, Day 3): 3.62 mg/dL
Uric Acid Level (mean of all subjects in each group) (serum uric acid [2]; group A 50 mg orally once a day, Day 7 0 Hour): 3.36 mg/dL
Uric Acid Level (mean of all subjects in each group) (serum uric acid [2]; group A 50 mg orally once a day, Day 7 0.5 Hour): 3.33 mg/dL
Uric Acid Level (mean of all subjects in each group) (serum uric acid [2]; group A 50 mg orally once a day, Day 7 1 Hour): 3.28 mg/dL
Uric Acid Level (mean of all subjects in each group) (serum uric acid [2]; group A 50 mg orally once a day, Day 7 2 Hour): 3.14 mg/dL
Uric Acid Level (mean of all subjects in each group) (serum uric acid [2]; group A 50 mg orally once a day, Day 7 3 Hour): 3.03 mg/dL
Uric Acid Level (mean of all subjects in each group) (serum uric acid [2]; group A 50 mg orally once a day, Day 7 4 Hour): 2.99 mg/dL
Uric Acid Level (mean of all subjects in each group) (serum uric acid [2]; group A 50 mg orally once a day, Day 7 6 Hour): 3.30 mg/dL
Uric Acid Level (mean of all subjects in each group) (serum uric acid [2]; group A 50 mg orally once a day, Day 7 8 Hour): 3.34 mg/dL
Uric Acid Level (mean of all subjects in each group) (serum uric acid [2]; group A 50 mg orally once a day, Day 7 10 Hour): 3.36 mg/dL
Uric Acid Level (mean of all subjects in each group) (serum uric acid [2]; group A 50 mg orally once a day, Day 7 12 Hour): 3.26 mg/dL
Uric Acid Level (mean of all subjects in each group) (serum uric acid [2]; group A 50 mg orally once a day, Day 7 16 Hour): 3.07 mg/dL
Uric Acid Level (mean of all subjects in each group) (serum uric acid [2]; group A 50 mg orally once a day, Day 7 24 Hour): 3.48 mg/dL
Uric Acid Level (mean of all subjects in each group) (serum uric acid [2]; group A 50 mg orally once a day, Day 14 0 Hour): 3.51 mg/dL
Uric Acid Level (mean of all subjects in each group) (serum uric acid [2]; group A 50 mg orally once a day, Day 14 0.5 Hour): 3.43 mg/dL
Uric Acid Level (mean of all subjects in each group) (serum uric acid [2]; group A 50 mg orally once a day, Day 14 1 Hour): 3.41 mg/dL
Uric Acid Level (mean of all subjects in each group) (serum uric acid [2]; group A 50 mg orally once a day, Day 14 2 Hour): 3.37 mg/dL
Uric Acid Level (mean of all subjects in each group) (serum uric acid [2]; group A 50 mg orally once a day, Day 14 3 Hour): 3.19 mg/dL
Uric Acid Level (mean of all subjects in each group) (serum uric acid [2]; group A 50 mg orally once a day, Day 14 4 Hour): 3.17 mg/dL
Uric Acid Level (mean of all subjects in each group) (serum uric acid [2]; group A 50 mg orally once a day, Day 14 6 Hour): 3.38 mg/dL
Uric Acid Level (mean of all subjects in each group) (serum uric acid [2]; group A 50 mg orally once a day, Day 14 8 Hour): 3.34 mg/dL
Uric Acid Level (mean of all subjects in each group) (serum uric acid [2]; group A 50 mg orally once a day, Day 14 10 Hour): 3.24 mg/dL
Uric Acid Level (mean of all subjects in each group) (serum uric acid [2]; group B 200 mg orally once a day, Day 1 8 Hour): 3.37 mg/dL
Uric Acid Level (mean of all subjects in each group) (serum uric acid [2]; group B 200 mg orally once a day, Day 1 10 Hour): 3.16 mg/dL
Uric Acid Level (mean of all subjects in each group) (serum uric acid [2]; group B 200 mg orally once a day, Day 1 12 Hour): 3.12 mg/dL
Uric Acid Level (mean of all subjects in each group) (serum uric acid [2]; group B 200 mg orally once a day, Day 1 16 Hour): 3.01 mg/dL
Uric Acid Level (mean of all subjects in each group) (serum uric acid [2]; group B 200 mg orally once a day, Day 1 24 Hour): 3.64 mg/dL
Uric Acid Level (mean of all subjects in each group) (serum uric acid [2]; group B 200 mg orally once a day, Day 3): 2.94 mg/dL
Uric Acid Level (mean of all subjects in each group) (serum uric acid [2]; group B 200 mg orally once a day, Day 7 0 Hour): 2.86 mg/dL
Uric Acid Level (mean of all subjects in each group) (serum uric acid [2]; group B 200 mg orally once a day, Day 7 0.5 Hour): 2.79 mg/dL
Uric Acid Level (mean of all subjects in each group) (serum uric acid [2]; group B 200 mg orally once a day, Day 7 1 Hour): 2.74 mg/dL
Uric Acid Level (mean of all subjects in each group) (serum uric acid [2]; group B 200 mg orally once a day, Day 7 2 Hour): 2.61 mg/dL
Uric Acid Level (mean of all subjects in each group) (serum uric acid [2]; group B 200 mg orally once a day, Day 7 3 Hour): 2.50 mg/dL
Uric Acid Level (mean of all subjects in each group) (serum uric acid [2]; group B 200 mg orally once a day, Day 7 4 Hour): 2.47 mg/dL
Uric Acid Level (mean of all subjects in each group) (serum uric acid [2]; group B 200 mg orally once a day, Day 7 6 Hour): 2.72 mg/dL
Uric Acid Level (mean of all subjects in each group) (serum uric acid [2]; group B 200 mg orally once a day, Day 7 8 Hour): 2.54 mg/dL
Uric Acid Level (mean of all subjects in each group) (serum uric acid [2]; group B 200 mg orally once a day, Day 7 10 Hour): 2.53 mg/dL
Uric Acid Level (mean of all subjects in each group) (serum uric acid [2]; group B 200 mg orally once a day, Day 7 12 Hour): 2.44 mg/dL
Uric Acid Level (mean of all subjects in each group) (serum uric acid [2]; group B 200 mg orally once a day, Day 7 16 Hour): 2.43 mg/dL
